These results are taken from paper PMC5539244, “2-Oxoesters: A Novel Class of Potent and Selective Inhibitors of Cytosolic Group IVA Phospholipase A2” (Scientific Reports, 2017).

Data set [1] has as its system RAW264.7 macrophages. In words: cellular toxicity by trypan blue exclusion. It counts as cell-based, murine. The settings on record: any concentration tested, data not shown.
Data set [2] in a line: logP measured by HPLC. The class given is physicochemical.
In data set [3] the test system is RAW264.7 macrophages. In words: KLA-elicited eicosanoid production in macrophages (LC-MS/MS). The class given is cell-based, murine. Particulars: 5 μM inhibitor 1 h before KLA 100 ng/mL; supernatant at 24 h. How it is done:
It is well established that the toll-like receptor 4 (TLR4)-specific agonist Kdo2-lipid A (KLA) leads to GIVA cPLA2 activation, [52] and release of arachidonic acid in macrophages that is then converted into eicosanoids by cyclooxygenase-2[53]–[55]. […] The high levels of PGD2 compared to background in culture supernatants following KLA stimulation makes it an ideal marker for GIVA cPLA2 activity in macrophages. […] RAW264.7 macrophages were pre-treated with vehicle control, DMSO or 17f (5 μM) for one hour prior to stimulation with KLA (100 ng/mL). Culture supernatants were collected after 24 hours for eicosanoid quantification by LC-MS/MS.
Figure 8 Inhibitor 17f inhibits KLA-elicited prostaglandin D2 biosynthesis by macrophages. […] Supernatants were collected 24 hr following stimulation for eicosanoid quantification.
RAW264.7 murine macrophage cells (ATCC #TIB-71) were maintained at 37 °C, 5% CO2 in DMEM (Life Technologies 11995–065) containing 10% FBS (Gemini), 100 U/mL penicillin/streptomycin, 1 mM sodium pyruvate and 4 mM L-glutamine. […] Supernatants were collected at 24 hours for eicosanoid quantification. […] Online UPLC-electrospray ionization MS/MS quantitation of eicosanoids was performed on a QTRAP 6500 hybrid quadrupole/linear ion-trap mass spectrometer (AB Sciex) via multiple reaction monitoring (MRM) in negative ion mode. […]

Data set [4] concerns the target T1, recombinant human GIVA cPLA2 (Homo sapiens, UniProt P47712).
T1 sequence (P47712 1-749): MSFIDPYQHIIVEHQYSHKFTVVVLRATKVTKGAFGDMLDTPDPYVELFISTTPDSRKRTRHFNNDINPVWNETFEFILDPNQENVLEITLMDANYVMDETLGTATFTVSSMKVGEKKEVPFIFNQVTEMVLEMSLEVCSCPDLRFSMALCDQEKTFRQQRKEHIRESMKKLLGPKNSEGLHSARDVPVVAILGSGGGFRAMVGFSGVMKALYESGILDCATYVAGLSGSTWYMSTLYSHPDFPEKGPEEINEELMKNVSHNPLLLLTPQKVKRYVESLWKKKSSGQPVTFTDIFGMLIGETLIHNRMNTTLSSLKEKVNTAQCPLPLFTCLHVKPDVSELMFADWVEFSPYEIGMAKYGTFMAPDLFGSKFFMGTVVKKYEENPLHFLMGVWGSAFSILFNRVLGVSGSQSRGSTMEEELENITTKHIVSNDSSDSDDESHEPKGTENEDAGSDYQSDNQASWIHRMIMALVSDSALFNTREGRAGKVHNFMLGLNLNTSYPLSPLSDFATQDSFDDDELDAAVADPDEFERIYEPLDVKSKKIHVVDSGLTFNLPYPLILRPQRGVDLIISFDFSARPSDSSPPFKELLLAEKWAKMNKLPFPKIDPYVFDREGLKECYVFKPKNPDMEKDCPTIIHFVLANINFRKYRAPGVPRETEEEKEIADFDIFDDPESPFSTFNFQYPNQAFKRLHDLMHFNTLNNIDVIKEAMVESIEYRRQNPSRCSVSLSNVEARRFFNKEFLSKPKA
In words: mixed micelle assay, GIVA cPLA2 inhibition. It counts as biochemical.

The target of data set [5] is T2, human GV sPLA2 (Homo sapiens, UniProt P39877).
T2 sequence (P39877 21-138): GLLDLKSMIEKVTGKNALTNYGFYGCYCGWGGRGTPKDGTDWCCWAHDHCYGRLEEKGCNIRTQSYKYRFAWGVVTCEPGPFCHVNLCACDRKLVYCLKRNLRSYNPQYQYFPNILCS
In words: mixed micelle assay, GV sPLA2 inhibition. It counts as biochemical. The settings on record: read-out: GV sPLA2 % Inhibition.

Usually chromatographic logP stands for lipophilicity estimated from chromatographic retention. A low value points to lower lipophilicity. As usually defined, the inhibition is the drop in the measured response relative to a control, in per cent. As for `O=C(O)CCCCOC(=O)C(=O)CCCCc1ccc(-c2ccccc2)cc1` [17f, 5-((6-([1,1′-Biphenyl]-4-yl)-2-oxohexanoyl)oxy)pentanoic acid], in data set [1], the cellular toxicity entry is given as “did not show cellular toxicity”. This compound also had a chromatographic logP in data set [2] of 3.5. Besides, the “decrease in KLA-elicited PGD2 production” value in data set [3] is “over 50%”. In addition, the “increase in potency compared to GK174 on GIVA cPLA2” value in data set [4] (addition of the carboxylic moiety) was 10 fold. Further, in data set [4] (mole fraction of inhibitor in total substrate interface giving 50% inhibition), the “GIVA cPLA2 X I(50)” value came out at 0.000078 ± 0.00001 mole fraction. Also, the results for the inhibition at 0.091 mole fraction in data set [4] (read-out: GIVA cPLA2 % Inhibition) and in data set [5] were over 95% and under 25%, respectively.
